The values that follow come from patent publication US7687079B2, “Methods of treating ileus” (priority 2002, dated 2010).

Structures are written as SMILES. “Also recorded” adds a separate entry of the source.

Assay [1] concerns MPO-positive leukocytes in intestinal muscularis. Nature of the assay: myeloperoxidase histochemistry, leukocyte recruitment into intestinal muscularis after SITx. The assay is classed as in vivo, rat. Here is the method:
Muscularis whole mounts were prepared from the mid small intestine collected 24 hours post-operatively. Segments of intestine were immersed in KRB in a Sylgaard™-lined glass dish and pinned without stretching along the mesenteric border. The length and width of the segments were measured with a caliper. The […] was then opened along the mesenteric border and stretched to 150% of the length and 250% of the width. The mucosa and submucosa were removed using fine forceps, and the remaining tissue fixed in 100% denatured ethanol for 30 minutes. […] Tissues were mounted on glass slides using Gel/Mount™ (Biomedia Corp., Foster City, Calif.), cover-slipped and inspected by light microscopy (Nikon FXA, Fryer, Huntley, Ill.) at a magnification of 200×. Numbers of MPO-positive PMN's infiltrating the muscularis extemae were determined from the mean counts collected from five to six adjacent optical fields centered between the mesenteric and anti-mesenteric borders.

Assay [2] relates to COX-2 mRNA. Nature of the assay: COX-2 mRNA expression in muscularis of transplanted grafts (real time RT-PCR). The assay is classed as in vivo, rat. To be noted: CO-treated SITx rats, 4 hours after reperfusion. Here is the method: The effects of inhalation of CO on transplant-induced pro-inflammatory and anti-inflammatory gene expression was assessed in muscularis extracts by RT-PCR. Muscularis extemae was collected from normal intestine and transplanted grafts 4 hours postoperatively and snap frozen in liquid nitrogen. This time point falls within the range of maximum inflammatory mediator expression that occurs between 3 and 6 hours following abdominal incision. Total RNA extraction was performed using the guanidium-thiocyanate phenol-chloroform extraction method as described previously (Eskandari et al., Am. J. Clin. Pathol. 75(3):367-370 (1997)). RNA pellets were resuspended in RNA-secure resuspension solution (Ambion Inc., Austin, Tex.), followed by removal of potentially contaminating DNA by treatment with DNase I (DNA-Free Kit, Ambion Inc., Austin, Tex.). Equal aliquots (5 μg) of total RNA from each sample were quantified by spectrophotometry (wavelength […]) and aliquoted at a concentration of 40 ng/μl. Peak mRNA expression was quantified in duplicate by SYBR Green two-step, real-time RT-PCR. […] Real-time PCR data were plotted as the ΔRn, fluorescence signal versus the cycle number. […] Quantification of mRNA expression was normalized to GAPDH and calculated relative to control using the comparative CT method (Schmittgen et al., J. Biochem. Biophys. Methods 46(1-2):69-8 (2000)). […]
A general note: Real-time PCR tracks product formation cycle by cycle.

Assay [3] deals with serum IL-6. The experiment in a line: serum IL-6 ELISA after SITx. The assay is classed as in vivo, rat. The procedure:
Serum samples were taken sequentially at 1, 4 and 24 hours after reperfusion and stored at −80° C. until evaluation. Serum cytokine concentrations, including IL-6, IL-10 and TNFα, were determined using rat enzyme-linked immunoassay (ELISA) kits as described by the manufacturer (R & D, Cambridge, Mass.).
FIG. 6 is a set of bar graphs that illustrate the effect of CO on serum IL-6 and nitrate/nitrite concentrations in animals receiving intestinal grafts at one and four hours after reperfusion. […] Serum IL-6 concentrations were determined using a rat enzyme-linked immunoassay (ELISA) kit (R&D, Cambridge, Mass.). The serum nitrite/nitrate levels, the stable end products of NO metabolism, were measured using a commercially available test kit (Cayman, Ann Arbor, Mich.). In this assay system, nitrate is reduced to nitrite using nitrate reductase, and nitrite concentration of the sample was subsequently measured using the Griess reaction. Serum IL-6 and nitrite/nitrate levels in animals subjected SITx and treated with air increased over time.

Assay [4] concerns IL-6 protein. The experiment in a line: IL-6 protein release from isolated muscularis (ELISA). The assay is classed as in vivo, mouse. The procedure:
Protein and Nitric Oxide Determinations. The small bowel of control and mice subjected to intestinal manipulation was removed under sterile conditions, 4 or 24 hours post-operatively, leaving the colon in situ. The small intestine was transferred to a beaker containing chilled Hanks balanced salt solution (Sigma, St. Louis, Mo.) with 200 U/ml penicillin G and 200 μg/ml streptomycin (HBSS), the lumen flushed, and the tissue transferred to a second beaker of HBSS. The muscularis was harvested as described above for real time RT-PCR. Tissues were maintained under sterile conditions at 3 to 5° C. throughout the harvesting procedure. Isolated muscularis was blotted onto sterile gauze, and the wet weight determined to obtain aliquots of 40 to 60 mg. […]
After the incubation period, the muscle tissue was pelleted, and aliquots of culture medium were frozen in liquid nitrogen and stored at −80° C. The levels of IL-6, IL-1β, PGE2, and IL-10 proteins secreted into the culture medium were determined using commercially available ELISA kits (R&D Systems, Minneapolis, Minn.) according to the manufacturer's instructions. […] Nitrate/nitrate levels were measured 24 hrs postoperatively using commercially available test kit (Oxford Biomedical Research, Oxford, Mich.) and quantified according to the manufacturer's directions. […]
Background: In an ELISA, binding on a coated surface is turned into a signal by an enzyme label.

Regarding `[C-]#[O+]` [CO, carbon monoxide], the MPO-positive cells entry in assay [1] (CO-treated control rats (unoperated)) is given as “rare”. Moreover, the “mean number of MPO positive cells” value in assay [1] (SITx + CO, 24 hours after SITx, not statistically significant (p=0.08, n=6)) is “decreased”. The Inflammatory infiltrates in assay [1] (SITx + CO, Table 2) is 21 ± 3.2 /200x field. Besides, in assay [2], the “reduction of mean relative COX-2 mRNA expression” value is given as “approximately 50%”. Also, the “serum IL-6 level” value in assay [3] (SITx + CO vs SITx with air) is recorded as “significantly decreased; also recorded: significantly lower”. Besides, the “Serum IL-6” value in assay [3] (SITx + CO, 4 hours after reperfusion, Table 2) amounted to 1439 pg/mL. Moreover, the IL-6 protein release entry in assay [4] (IM + CO vs IM, 24 hr after surgery) was “significantly attenuated”; in assay [4] (IM mice treated with CO, 24 hr postoperatively), 2000 pg/mL.
